The text below walks through data of ChEMBL document CHEMBL1201862, “PubChem BioAssay data set” (2004).

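Briefly, cells in 96-well plates were exposed to five compound concentrations for 48 h, and endpoints were estimated by linear interpolation. GI50 marks 50% less growth.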 Activity calls are given as the source filed them. Cut-off read from the data, not from the text of the source: active = GI50 up to about 1.1 µM and inactive = higher. Some results are limits rather than exact numbers.

Holding throughout (assay): NCI anticancer screen, dose series, 48 h
For assay [1], the system named is EKVX.
The subject of assay [2] is HCT-116.
The subject of assay [3] is HT-29.
Assay [4] relates to Hs-578T.
The test system of assay [5] is IGROV-1.
The subject of assay [6] is M14.
In assay [7] the test system is MCF7.
Assay [8] relates to Malme-3M.
In assay [9] the test system is NCI-H226.
Assay [10] relates to OVCAR-4.
Assay [11] deals with PC-3.
Assay [12] deals with SF-268.
In assay [13] the test system is SF-295.
For assay [14], the system named is SK-MEL-28.
Assay [15] relates to SK-MEL-5.
In assay [16] the test system is SK-OV-3.
Assay [17] relates to SR.
The test system of assay [18] is T47D.
For assay [19], the system named is HOP-62.

Consider `CC(=O)Nc1c(C)cc2c(nc3n2CCC3OC(C)=O)c1[N+](=O)[O-]` (centres undefined), for which the GI50 in [1], in [2], in assay [3], in assay [4], in assay [5] and in [6] was > 100 µM (inactive) each time. Further, the GI50 in [7], in assay [8], in [9], in assay [10], in assay [11] and in assay [12] was > 100 µM (inactive) in each case. Moreover, the GI50 in [13], in assay [14], in assay [15], in [16], in assay [17] and in [18] was > 100 µM (inactive) throughout.

For `O=C(CC(c1ccccc1)c1c(O)c2ccccc2oc1=O)c1ccccc1` (centres undefined), the GI50 is 72.1 µM (inactive) in [1]; > 84.5 µM (inactive) in [2]; > 100 µM (inactive) in assay [19]; > 94.8 µM (inactive) in assay [3]; > 69.5 µM (inactive) in assay [4]; > 100 µM (inactive) in assay [5]. In addition, the GI50 in assay [6] was > 100 µM (inactive); in assay [7], > 85.9 µM (inactive); in assay [8], > 84.9 µM (inactive); in assay [9], 71.9 µM (inactive); in assay [10], 56.1 µM (inactive); in [11], > 93.3 µM (inactive). For the same compound, the GI50 is > 100 µM (inactive) in assay [12]; > 76.7 µM (inactive) in [13]; 72.1 µM (inactive) in assay [14]; > 100 µM (inactive) in assay [15]; 67.9 µM (inactive) in assay [16]; 44.6 µM (inactive) in assay [17]. Further, the GI50 in assay [18] was 58.1 µM (inactive).

For `S=C1Cc2cc3ccccc3nc2-c2ccccc2N1`, the GI50 in [1] was 38 µM (inactive); in assay [2] it was 13.6 µM (inactive); in assay [19] it was 11.6 µM (inactive); in assay [3], > 47.2 µM (inactive); in assay [4], 5.64 µM (inactive); in [5], 29 µM (inactive). Besides, the GI50 in assay [6] is 26.7 µM (inactive); in [7], 38.9 µM (inactive); in assay [8], 27.5 µM (inactive); in [9] it was 16.1 µM (inactive); in assay [10] it was 12.4 µM (inactive); in [11] it was 36 µM (inactive). For the same compound, the GI50 in assay [12] is 7.01 µM (inactive); in assay [13], 22.7 µM (inactive); in assay [14], 27.5 µM (inactive); in assay [15], 44.8 µM (inactive); in assay [16], 5.68 µM (inactive); in [17] it was 29 µM (inactive). In addition, the GI50 in [18] is 8.3 µM (inactive).

In the case of `CC(=O)/C(=N\N=C(N)N)c1ccccc1`, the GI50 in assay [1] is 68.1 µM (inactive); in assay [2], > 100 µM (inactive); in [19] it was > 100 µM (inactive); in assay [3], > 100 µM (inactive); in assay [4], > 100 µM (inactive); in assay [5], > 100 µM (inactive). For the same compound, the GI50 in assay [6], in assay [7], in assay [8], in assay [9], in assay [10] and in assay [11] was > 100 µM (inactive) throughout. The GI50 in [12], in [13], in [14], in [15], in assay [16] and in [17] was > 100 µM (inactive) throughout. Also, the GI50 in [18] is 73.1 µM (inactive).

As to `CCOC(=O)CCC(NC(=O)C(N)Cc1ccc(N(CCCl)CCCl)cc1)C(=O)OCC` (centres undefined), the GI50 was 2.36 µM (inactive) in assay [1]; 0.375 µM (active) in assay [2]; 1.79 µM (inactive) in assay [19]; 0.716 µM (active) in [3]; 2.24 µM (inactive) in assay [4]; 1.17 µM (inactive) in [5]. The GI50 was 0.225 µM (active) in [6]; 0.377 µM (active) in assay [7]; 0.234 µM (active) in assay [8]; 6.14 µM (inactive) in assay [9]; 0.624 µM (active) in assay [10]; 1.34 µM (inactive) in assay [11]. In addition, the GI50 in assay [12] was 0.592 µM (active); in [13], 2.88 µM (inactive); in assay [14], 0.719 µM (active); in [15], 1.5 µM (inactive); in assay [16], 1.3 µM (inactive); in assay [17] it was < 0.0182 µM (active). Also, in assay [18], the GI50 was 0.446 µM (active).

On to `O=C(O)Cn1ccnc1[N+](=O)[O-]`, for which the GI50 in [1], in [2], in [19], in [3], in assay [4] and in [5] was > 100 µM (inactive) throughout. Also, the GI50 in assay [6], in [7], in [8], in [9], in assay [10] and in assay [11] was > 100 µM (inactive) throughout. Further, the GI50 in assay [12], in assay [13], in assay [14], in assay [15], in assay [16] and in [17] was > 100 µM (inactive) each time. Besides, the GI50 in [18] is > 100 µM (inactive).

With `COc1ccc(/C=C2\N=C(N3CCCCC3)NC2=O)cc1`, the GI50 in assay [1], in assay [2], in assay [19], in assay [3], in assay [4] and in assay [5] was > 100 µM (inactive) each time. For the same compound, the GI50 in assay [6], in assay [7], in assay [8], in [9], in assay [10] and in assay [11] was > 100 µM (inactive) each time. Also, the GI50 in assay [12] was > 100 µM (inactive); in assay [13], > 100 µM (inactive); in assay [14] it was > 100 µM (inactive); in assay [16], > 100 µM (inactive); in assay [17] it was 72.1 µM (inactive); in [18], 34.5 µM (inactive).

For `CSc1nc(N)c(NC2OC(CO)C(O)C2O)c(=O)[nH]1` (centres undefined), the GI50 in assay [1], in [2], in [19], in assay [3], in [4] and in [5] was > 100 µM (inactive) in each case. Also, the GI50 in assay [6], in assay [7], in assay [8], in assay [9], in [10] and in [11] was > 100 µM (inactive) in each case. The GI50 in [12], in assay [13], in [14], in [15], in assay [16] and in [17] was > 100 µM (inactive) throughout. In assay [18], the GI50 was > 100 µM (inactive).

For `CCOC(CNCCC(=O)OC)OCC`, the GI50 in assay [1], in [2], in assay [19], in assay [3], in assay [4] and in assay [5] was > 10 µM (inactive) each time. In addition, the GI50 in assay [6], in assay [7], in assay [8], in [9], in [10] and in assay [11] was > 10 µM (inactive) in each case. For the same compound, the GI50 in assay [12], in assay [13], in assay [14], in assay [15], in assay [16] and in assay [17] was > 10 µM (inactive) throughout. Also, the GI50 in assay [18] was > 10 µM (inactive).

Consider `CCCCCCNC(=S)N/N=C(\C)c1ccccn1`, for which the GI50 in assay [1] is 0.0176 µM (active); in assay [2], < 0.01 µM (active); in assay [19], 0.0445 µM (active); in assay [4], 20.7 µM (inactive); in assay [5] it was < 0.01 µM (active); in assay [6], 0.0337 µM (active). Also, the GI50 in [7] is < 0.0415 µM (active); in assay [8] it was 2.65 µM (inactive); in assay [9] it was 0.138 µM (active); in assay [10], 11.4 µM (inactive); in assay [11], < 0.01 µM (active); in assay [12], 0.604 µM (active). In addition, the GI50 was 0.407 µM (active) in assay [13]; 2.56 µM (inactive) in [14]; 0.299 µM (active) in assay [15]; 0.181 µM (active) in [16]; < 0.01 µM (active) in assay [17]; < 0.01 µM (active) in [18].

`CC[C@H](C)[C@@H]([C@@H](CC(=O)N1CCC[C@H]1[C@H](OC)[C@@H](C)C(=O)NCCc1ccccc1)OC)N(C)C(=O)C(NC(=O)[C@H](C(C)C)N(C)C)C(C)C` (some centres undefined): the GI50 in assay [1] is 0.000964 µM (active); in [2], 0.000255 µM (active); in [19], 0.000235 µM (active); in assay [3], 8.89e-05 µM (active); in assay [4] it was 0.000446 µM (active); in [5], 0.000363 µM (active). The GI50 in assay [6] is 0.000203 µM (active); in assay [7], 4.54e-05 µM (active); in assay [8] it was 0.001 µM (active); in assay [9], 0.00064 µM (active); in [10] it was 0.00094 µM (active); in assay [11] it was 0.000119 µM (active). Also, the GI50 in assay [12] was 0.000658 µM (active); in assay [14], > 10 µM (inactive); in assay [15], 4.18e-05 µM (active); in assay [17], 2.57e-05 µM (active); in assay [18], > 10 µM (inactive).
